Results published in patent US20210122730A1, “GLUCOCORTICOID RECEPTOR MODULATORS” (ORIC Pharmaceuticals, Inc., priority 2017, published 2021).

Experiments:
GR = target: T1, GR (Homo sapiens, UniProt P04150); assay: In Vitro GR Luciferase Reporter Assay (antagonist mode, CHO-K1-GR-MMTV-Luc reporter cells); format: cell-based
T1 construct: expressed in transfected cells; host or cells: CHO-K1
T1 sequence (P04150 1-777): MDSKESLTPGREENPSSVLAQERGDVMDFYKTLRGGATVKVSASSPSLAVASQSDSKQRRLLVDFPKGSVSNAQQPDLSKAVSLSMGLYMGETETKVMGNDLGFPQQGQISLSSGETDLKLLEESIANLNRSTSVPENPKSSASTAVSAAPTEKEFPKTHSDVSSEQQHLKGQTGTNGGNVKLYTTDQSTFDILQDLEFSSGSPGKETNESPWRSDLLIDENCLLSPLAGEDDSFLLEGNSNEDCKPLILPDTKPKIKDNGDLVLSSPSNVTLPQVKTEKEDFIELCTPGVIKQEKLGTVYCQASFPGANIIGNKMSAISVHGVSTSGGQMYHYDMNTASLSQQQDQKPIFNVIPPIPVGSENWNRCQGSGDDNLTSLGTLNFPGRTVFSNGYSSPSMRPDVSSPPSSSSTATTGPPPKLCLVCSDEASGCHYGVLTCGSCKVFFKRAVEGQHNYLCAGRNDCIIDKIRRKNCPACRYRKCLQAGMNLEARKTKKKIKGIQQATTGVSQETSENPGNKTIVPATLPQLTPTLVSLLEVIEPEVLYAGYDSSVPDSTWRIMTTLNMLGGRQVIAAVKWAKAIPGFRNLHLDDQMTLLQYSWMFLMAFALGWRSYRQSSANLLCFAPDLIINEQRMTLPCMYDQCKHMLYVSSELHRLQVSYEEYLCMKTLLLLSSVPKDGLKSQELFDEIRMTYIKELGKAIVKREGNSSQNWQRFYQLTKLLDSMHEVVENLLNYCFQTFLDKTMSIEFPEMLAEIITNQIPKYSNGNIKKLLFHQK
Summary of the method: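 Antagonist mode: compounds (8 serial 1:5 dilutions) added to GR-MMTV-luciferase CHO-K1 reporter cells co-exposed to 10 nM dexamethasone final, in phenol red-free DMEM plus 10% CSS. After roughly 18-24 h at 37° C, OneGlo luminescence read and IC50 calculated.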

CYP2C8 = target: T2, CYP2C8 (Homo sapiens, UniProt P10632); assay: CYP Inhibition Assay (CYP2C8, human liver microsomes, paclitaxel substrate); format: in vitro ADME; conditions: pH 7.4; pooled human liver microsomes 0.1 mg/mL, probe substrate paclitaxel
T2 construct: Pooled human microsomes were obtained from Sekisui XenoTech, KS; tissue Sekisui XenoTech, KS; host or cells: pooled human liver microsomes
T2 sequence (P10632 1-490): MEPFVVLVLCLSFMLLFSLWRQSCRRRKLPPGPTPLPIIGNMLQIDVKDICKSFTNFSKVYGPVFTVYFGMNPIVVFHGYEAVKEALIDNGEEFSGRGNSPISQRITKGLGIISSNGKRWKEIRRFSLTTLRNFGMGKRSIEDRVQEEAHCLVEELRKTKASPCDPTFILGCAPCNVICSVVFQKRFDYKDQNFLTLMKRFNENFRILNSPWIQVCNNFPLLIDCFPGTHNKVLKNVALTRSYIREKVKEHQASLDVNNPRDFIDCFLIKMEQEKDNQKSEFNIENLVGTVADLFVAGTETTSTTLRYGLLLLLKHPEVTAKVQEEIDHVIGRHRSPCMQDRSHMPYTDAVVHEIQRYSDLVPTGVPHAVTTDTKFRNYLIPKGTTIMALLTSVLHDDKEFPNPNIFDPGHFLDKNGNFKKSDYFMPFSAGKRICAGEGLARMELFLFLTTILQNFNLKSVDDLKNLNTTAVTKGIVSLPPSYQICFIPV
Summary of the method: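 CYP2C8 activity read as 6α-hydroxypaclitaxel formation by LC-MS/MS, with % inhibition versus vehicle control. Reactions ran 5 min at 37° C, pH 7.4 phosphate buffer, 0.1 mg/mL pooled human liver microsomes, 1 mM NADPH, duplicate wells.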

[1] = antagonist mode, 10 nM Dexamethasone

SMILES | IC50 (GR; [1]) | inhibition at 5 min (CYP2C8) | IC50 (GR; antagonist assay with 10 nM Dexamethasone, 18-24 hours)
Cn1ccc(S(=O)(=O)N(CC(C)(C)O)[C@H]2CCC3=Cc4c(cnn4-c4ccc(F)cc4)C[C@]3(C(=O)c3ncc(C(F)(F)F)s3)C2)n1 [Example 189, N-((4aS,6S)-1-(4-fluorophenyl)-4a-(5-(trifluoromethyl)thiazole-2-carbonyl)-4,4a,5,6,7,8-hexahydro-1H-benzo[f]indazol-6-yl)-N-(2-hydroxy-2-methylpropyl)-1-methyl-1H-pyrazole-3-sulfonamide] | ≤ 0.1 µM | 50 to 75% | –
Cn1cnc(S(=O)(=O)N(CC2CC2)[C@H]2CCC3=Cc4c(cnn4-c4ccc(F)cc4)C[C@]3(C(=O)c3ncc(C(F)(F)F)s3)C2)c1 [Example 217, N-(cyclopropylmethyl)-N-((4aS,6S)-1-(4-fluorophenyl)-4a-(5-(trifluoromethyl)thiazole-2-carbonyl)-4,4a,5,6,7,8-hexahydro-1H-benzo[f]indazol-6-yl)-1-methyl-1H-imidazole-4-sulfonamide] | ≤ 0.1 µM | 25 to 50% | –
CCN([C@H]1CCC2=Cc3c(cnn3-c3ccc(F)cc3)C[C@]2(C(=O)c2cc(C(F)(F)F)ccn2)C1)S(=O)(=O)c1cn(C)cn1 [Example 214, N-ethyl-N-((4aS,6S)-1-(4-fluorophenyl)-4a-(4-(trifluoromethyl)picolinoyl)-4,4a,5,6,7,8-hexahydro-1H-benzo[f]indazol-6-yl)-1-methyl-1H-imidazole-4-sulfonamide] | ≤ 0.1 µM | ≤ 25% | –
Cn1ccc(S(=O)(=O)N(CC(C)(C)O)[C@H]2CCC3=Cc4c(cnn4-c4ccc(F)cc4)C[C@]3(C(=O)c3cc(C(F)(F)F)ccn3)C2)n1 [Example 195, N-((4aS,6S)-1-(4-fluorophenyl)-4a-(4-(trifluoromethyl)picolinoyl)-4,4a,5,6,7,8-hexahydro-1H-benzo[f]indazol-6-yl)-N-(2-hydroxy-2-methylpropyl)-1-methyl-1H-pyrazole-3-sulfonamide] | ≤ 0.1 µM | 25 to 50% | –
O=C(c1cc(F)ccn1)[C@]12Cc3cnn(-c4ccc(F)cc4)c3C=C1CC[C@H](N(C1CC1)S(=O)(=O)c1ccc(F)cc1)C2 [Example 228, N-cyclopropyl-4-fluoro-N-((4aS,6S)-1-(4-fluorophenyl)-4a-(4-fluoropicolinoyl)-4,4a,5,6,7,8-hexahydro-1H-benzo[f]indazol-6-yl)benzenesulfonamide] | ≤ 0.1 µM | 50 to 75% | –
CCN([C@H]1CCC2=Cc3c(cnn3-c3ccc(F)cc3)C[C@]2(C(=O)c2cc(C(F)(F)F)ccn2)C1)S(=O)(=O)c1cnn(C)c1 [Example 91, N-ethyl-N-((4aS,6S)-1-(4-fluorophenyl)-4a-(4-(trifluoromethyl)picolinoyl)-4,4a,5,6,7,8-hexahydro-1H-benzo[f]indazol-6-yl)-1-methyl-1H-pyrazole-4-sulfonamide] | – | 50 to 75% | ≤ 0.1 µM
CC(C)N([C@H]1CCC2=Cc3c(cnn3-c3ccc(F)cc3)C[C@]2(C(=O)c2ncc(C(F)(F)F)s2)C1)S(=O)(=O)c1cnn(C)c1 [Example 191, N-((4aS,6S)-1-(4-fluorophenyl)-4a-(5-(trifluoromethyl)thiazole-2-carbonyl)-4,4a,5,6,7,8-hexahydro-1H-benzo[f]indazol-6-yl)-N-isopropyl-1-methyl-1H-pyrazole-4-sulfonamide] | ≤ 0.1 µM | 25 to 50% | –
CCN([C@H]1CCC2=Cc3c(cnn3-c3ccc(F)cc3)C[C@]2(C(=O)c2ncc(C(F)(F)F)s2)C1)S(=O)(=O)c1cn(C)cn1 [Example 216, N-ethyl-N-((4aS,6S)-1-(4-fluorophenyl)-4a-(5-(trifluoromethyl)thiazole-2-carbonyl)-4,4a,5,6,7,8-hexahydro-1H-benzo[f]indazol-6-yl)-1-methyl-1H-imidazole-4-sulfonamide] | ≤ 0.1 µM | 25 to 50% | –
Cn1ncc(S(=O)(=O)N(C2CC2)[C@H]2CCC3=Cc4c(cnn4-c4ccc(F)cc4)C[C@]3(C(=O)c3cc(Cl)ccn3)C2)n1 [Example 262, N-((4aS,6S)-4a-(4-chloropicolinoyl)-1-(4-fluorophenyl)-4,4a,5,6,7,8-hexahydro-1H-benzo[f]indazol-6-yl)-N-cyclopropyl-2-methyl-2H-1,2,3-triazole-4-sulfonamide] | ≤ 0.1 µM | 50 to 75% | –

Continued, values first:

IC50 (GR; [1]) | inhibition at 5 min (CYP2C8) | IC50 (GR; antagonist assay with 10 nM Dexamethasone, 18-24 hours) | SMILES
≤ 0.1 µM | ≤ 25% | – | CCN([C@H]1CCC2=Cc3c(cnn3-c3ccc(F)cc3)C[C@]2(C(=O)c2cc(C(F)(F)F)ccn2)C1)S(=O)(=O)c1ncn(C)n1 [Example 357, N-ethyl-N-((4aS,6S)-1-(4-fluorophenyl)-4a-(4-(trifluoromethyl)picolinoyl)-4,4a,5,6,7,8-hexahydro-1H-benzo[f]indazol-6-yl)-1-methyl-1H-1,2,4-triazole-3-sulfonamide]
≤ 0.1 µM | 25 to 50% | – | Cn1cnc(S(=O)(=O)N(CC(F)(F)F)[C@H]2CCC3=Cc4c(cnn4-c4ccc(F)cc4)C[C@]3(C(=O)c3ncc(C(F)(F)F)s3)C2)n1 [Example 367, N-((4aS,6S)-1-(4-fluorophenyl)-4a-(5-(trifluoromethyl)thiazole-2-carbonyl)-4,4a,5,6,7,8-hexahydro-1H-benzo[f]indazol-6-yl)-1-methyl-N-(2,2,2-trifluoroethyl)-1H-1,2,4-triazole-3-sulfonamide]
≤ 0.1 µM | 25 to 50% | – | CCn1ccc(S(=O)(=O)[C@H]2CCC3=Cc4c(cnn4-c4ccc(F)cc4)C[C@]3(C(=O)c3ccc(C(F)(F)F)cn3)C2)n1 [Example 308, ((4aS,6S)-6-((1-ethyl-1H-pyrazol-3-yl)sulfonyl)-1-(4-fluorophenyl)-1,4,5,6,7,8-hexahydro-4aH-benzo[f]indazol-4a-yl)(5-(trifluoromethyl)pyridin-2-yl)methanone]
≤ 0.1 µM | ≤ 25% | – | Cn1cnc(S(=O)(=O)N(CC(F)F)[C@H]2CCC3=Cc4c(cnn4-c4ccc(F)cc4)C[C@]3(C(=O)c3ncc(C(F)(F)F)s3)C2)n1 [Example 331, N-(2,2-difluoroethyl)-N-((4aS,6S)-1-(4-fluorophenyl)-4a-(5-(trifluoromethyl)thiazole-2-carbonyl)-4,4a,5,6,7,8-hexahydro-1H-benzo[f]indazol-6-yl)-1-methyl-1H-1,2,4-triazole-3-sulfonamide]
≤ 0.1 µM | ≤ 25% | – | Cn1ccc(S(=O)(=O)[C@@]2(F)CCC3=Cc4c(cnn4-c4ccc(F)cc4)C[C@]3(C(=O)c3ccc(C(F)(F)F)cn3)C2)n1 [Example 289, ((4aS,6S)-6-fluoro-1-(4-fluorophenyl)-6-((1-methyl-1H-pyrazol-3-yl)sulfonyl)-1,4,5,6,7,8-hexahydro-4aH-benzo[f]indazol-4a-yl)(5-(trifluoromethyl)pyridin-2-yl)methanone]
≤ 0.1 µM | 50 to 75% | – | O=C(c1cc(C(F)(F)F)ccn1)[C@]12Cc3cnn(-c4ccc(F)cc4)c3C=C1CC[C@H](N(C1CC1)S(=O)(=O)c1cncc(Cl)c1)C2 [Example 334, 5-chloro-N-cyclopropyl-N-((4aS,6S)-1-(4-fluorophenyl)-4a-(4-(trifluoromethyl)picolinoyl)-4,4a,5,6,7,8-hexahydro-1H-benzo[f]indazol-6-yl)pyridine-3-sulfonamide]
≤ 0.1 µM | ≤ 25% | – | O=C(c1cc(Cl)ccn1)[C@]12Cc3cnn(-c4ccc(F)cc4)c3C=C1CC[C@H](N(C1CC1)S(=O)(=O)c1ccc(Cl)nc1)C2 [Example 321, 6-chloro-N-((4aS,6S)-4a-(4-chloropicolinoyl)-1-(4-fluorophenyl)-4,4a,5,6,7,8-hexahydro-1H-benzo[f]indazol-6-yl)-N-cyclopropylpyridine-3-sulfonamide]
